Molecular target: T1, USP7 (Homo sapiens, UniProt Q93009)
T1 construct: full length human USP7 protein; made in house
Test: USP7, Ub-PLA2 assay
Assay type: biochemical
Conditions: USP7, Ub-PLA2 assay
In short: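 Compounds tested against USP7 with DMSO vehicle control and NEM-treated wells as background. Fluorescence (RFU) read-out; % inhibition normalized per plate to mean DMSO and NEM controls.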

T1 sequence (Q93009 whole entry): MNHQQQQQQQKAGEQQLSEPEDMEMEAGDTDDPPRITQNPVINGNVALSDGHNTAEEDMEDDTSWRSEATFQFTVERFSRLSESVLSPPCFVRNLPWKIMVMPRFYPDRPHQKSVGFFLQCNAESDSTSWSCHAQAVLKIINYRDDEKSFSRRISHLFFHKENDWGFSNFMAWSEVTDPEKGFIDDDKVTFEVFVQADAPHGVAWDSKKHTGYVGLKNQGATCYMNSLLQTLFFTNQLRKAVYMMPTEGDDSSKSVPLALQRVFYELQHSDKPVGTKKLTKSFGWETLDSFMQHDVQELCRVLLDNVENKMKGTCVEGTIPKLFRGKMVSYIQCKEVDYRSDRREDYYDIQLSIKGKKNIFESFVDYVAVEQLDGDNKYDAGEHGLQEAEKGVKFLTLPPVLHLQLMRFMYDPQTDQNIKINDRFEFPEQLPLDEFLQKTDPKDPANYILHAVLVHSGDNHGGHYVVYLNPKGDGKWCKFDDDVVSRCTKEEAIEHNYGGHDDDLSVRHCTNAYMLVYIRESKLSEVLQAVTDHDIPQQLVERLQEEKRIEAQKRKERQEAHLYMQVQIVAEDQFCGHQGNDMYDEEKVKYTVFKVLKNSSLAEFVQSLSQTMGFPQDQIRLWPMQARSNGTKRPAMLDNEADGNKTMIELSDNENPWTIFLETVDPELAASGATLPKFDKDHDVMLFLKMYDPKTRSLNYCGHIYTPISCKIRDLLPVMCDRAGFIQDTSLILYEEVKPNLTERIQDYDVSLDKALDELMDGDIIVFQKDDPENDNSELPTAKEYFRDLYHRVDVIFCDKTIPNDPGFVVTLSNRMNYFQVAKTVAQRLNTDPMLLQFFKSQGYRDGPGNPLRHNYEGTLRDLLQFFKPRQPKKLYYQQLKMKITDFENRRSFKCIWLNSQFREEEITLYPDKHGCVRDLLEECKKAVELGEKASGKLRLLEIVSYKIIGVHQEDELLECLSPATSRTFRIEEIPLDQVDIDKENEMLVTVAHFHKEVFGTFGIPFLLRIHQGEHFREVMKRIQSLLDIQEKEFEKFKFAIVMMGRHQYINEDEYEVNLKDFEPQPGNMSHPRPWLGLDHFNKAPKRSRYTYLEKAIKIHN

USP7 inhibition, result in words	Compound
Particularly good results	N=C(N)Nc1ccc(NC(=O)c2cc([N+](=O)[O-])c(Sc3c(Cl)cncc3Cl)s2)cc1 [Example 236, 5-((3,5-dichloropyridin-4-yl)thio)-N-(4-guanidinophenyl)-4-nitrothiophene-2-carboxamide]

Same assay, conditions: Ub-PLA2 / NBD C6-HPC fluorescence, 30 minute preincubation; read-out: EC50 for inhibition of USP7

EC50	Compound
1000 to 10000 nM	CN1CCN(C(=O)CNC(=O)c2cc([N+](=O)[O-])c(Sc3c(Cl)cncc3Cl)s2)CC1 [Example 218, 5-((3,5-dichloropyridin-4-yl)thio)-N-(2-(4-methylpiperazin-1-yl)-2-oxoethyl)-4-nitrothiophene-2-carboxamide]
1000 to 10000 nM	O=C(CNC(=O)c1cc([N+](=O)[O-])c(Sc2c(Cl)cncc2Cl)s1)NCC(F)F [Example 219, 5-((3,5-dichloropyridin-4-yl)thio)-N-(2-((2,2-difluoroethyl)amino)-2-oxoethyl)-4-nitrothiophene-2-carboxamide]
1000 to 10000 nM	O=C(CNC(=O)c1cc([N+](=O)[O-])c(Sc2c(Cl)cncc2Cl)s1)NC1CCCCC1 [Example 220]
1000 to 10000 nM	O=C(NCC(=O)N1CCCCC1)c1cc([N+](=O)[O-])c(Sc2c(Cl)cncc2Cl)s1 [Example 221, 5-((3,5-dichloropyridin-4-yl)thio)-4-nitro-N-(2-oxo-2-(piperidin-1-yl)ethyl)thiophene-2-carboxamide]
≤ 1000 nM	CN1CCC(NC(=O)CNC(=O)c2cc([N+](=O)[O-])c(Sc3c(Cl)cncc3Cl)s2)CC1 [Example 222, 5-((3,5-dichloropyridin-4-yl)thio)-N-(2-((1-methylpiperidin-4-yl)amino)-2-oxoethyl)-4-nitrothiophene-2-carboxamide]
1000 to 10000 nM	O=C(NCCCN1CCCC(O)C1)c1cc([N+](=O)[O-])c(Sc2c(Cl)cncc2Cl)s1 (stereo not drawn) [Example 223, 5-((3,5-dichloropyridin-4-yl)thio)-N-(3-(3-hydroxypiperidin-1-yl)propyl)-4-nitrothiophene-2-carboxamide]
1000 to 10000 nM	CN(C)C1CCN(CCCNC(=O)c2cc([N+](=O)[O-])c(Sc3c(Cl)cncc3Cl)s2)CC1 [Example 224, 5-((3,5-dichloropyridin-4-yl)thio)-N-(3-(4-(dimethylamino)piperidin-1-yl)propyl)-4-nitrothiophene-2-carboxamide]
≤ 1000 nM	O=C(NCCCN1CCC(O)CC1)c1cc([N+](=O)[O-])c(Sc2c(Cl)cncc2Cl)s1 [Example 225, 5-((3,5-dichloropyridin-4-yl)thio)-N-(3-(4-hydroxypiperidin-1-yl)propyl)-4-nitrothiophene-2-carboxamide]
≤ 1000 nM	NC(=O)C1CCN(CCCNC(=O)c2cc([N+](=O)[O-])c(Sc3c(Cl)cncc3Cl)s2)CC1 [Example 226, 1-(3-(5-((3,5-dichloropyridin-4-yl)thio)-4-nitrothiophene-2-carboxamido)propyl)piperidine-4-carboxamide]
≤ 1000 nM	O=C(NCCCN1CCC(CO)CC1)c1cc([N+](=O)[O-])c(Sc2c(Cl)cncc2Cl)s1 [Example 227, 5-((3,5-dichloropyridin-4-yl)thio)-N-(3-(4-(hydroxymethyl)piperidin-1-yl)propyl)-4-nitrothiophene-2-carboxamide]
1000 to 10000 nM	O=C(NCCCN1CCC(F)CC1)c1cc([N+](=O)[O-])c(Sc2c(Cl)cncc2Cl)s1 [Example 228, 5-((3,5-dichloropyridin-4-yl)thio)-N-(3-(4-fluoropiperidin-1-yl)propyl)-4-nitrothiophene-2-carboxamide]
≤ 1000 nM	CC1(C)CCN(CCCNC(=O)c2cc([N+](=O)[O-])c(Sc3c(Cl)cncc3Cl)s2)CC1 [Example 229, 5-((3,5-dichloropyridin-4-yl)thio)-N-(3-(4,4-dimethylpiperidin-1-yl)propyl)-4-nitrothiophene-2-carboxamide]
≤ 1000 nM	CCCN1CCC(NC(=O)c2cc([N+](=O)[O-])c(Sc3c(Cl)cncc3Cl)s2)CC1 [Example 230, 5-((3,5-dichloropyridin-4-yl)thio)-4-nitro-N-(1-propylpiperidin-4-yl)thiophene-2-carboxamide]
1000 to 10000 nM	O=C(NC1CCN(C2CC2)CC1)c1cc([N+](=O)[O-])c(Sc2c(Cl)cncc2Cl)s1 [Example 231, N-(1-cyclopropylpiperidin-4-yl)-5-((3,5-dichloropyridin-4-yl)thio)-4-nitrothiophene-2-carboxamide]
1000 to 10000 nM	CC(=O)N1CCC(NC(=O)c2cc([N+](=O)[O-])c(Sc3c(Cl)cncc3Cl)s2)CC1 [Example 232, N-(1-acetylpiperidin-4-yl)-5-((3,5-dichloropyridin-4-yl)thio)-4-nitrothiophene-2-carboxamide]
≤ 1000 nM	CS(=O)(=O)N1CCC(NC(=O)c2cc([N+](=O)[O-])c(Sc3c(Cl)cncc3Cl)s2)CC1 [Example 233, 5-((3,5-dichloropyridin-4-yl)thio)-N-(1-(methylsulfonyl)piperidin-4-yl)-4-nitrothiophene-2-carboxamide]
≤ 1000 nM	CC(C)(C)OC(=O)Nc1ccc(NC(=O)c2cc([N+](=O)[O-])c(Sc3c(Cl)cncc3Cl)s2)cc1 [Example 234, tert-butyl (4-(5-((3,5-dichloropyridin-4-yl)thio)-4-nitrothiophene-2-carboxamido)phenyl)carbamate]
≤ 1000 nM	Nc1ccc(NC(=O)c2cc([N+](=O)[O-])c(Sc3c(Cl)cncc3Cl)s2)cc1 [Example 235, N-(4-aminophenyl)-5-((3,5-dichloropyridin-4-yl)thio)-4-nitrothiophene-2-carboxamide]

EC50	Compound
≤ 1000 nM	N=C(N)Nc1ccc(NC(=O)c2cc([N+](=O)[O-])c(Sc3c(Cl)cncc3Cl)s2)cc1 [Example 236, 5-((3,5-dichloropyridin-4-yl)thio)-N-(4-guanidinophenyl)-4-nitrothiophene-2-carboxamide]
≤ 1000 nM	N=C(N)N1CCC(NC(=O)c2cc([N+](=O)[O-])c(Sc3c(Cl)cncc3Cl)s2)CC1 [Example 237, N-(1-carbamimidoylpiperidin-4-yl)-5-((3,5-dichloropyridin-4-yl)thio)-4-nitrothiophene-2-carboxamide]
≤ 1000 nM	COc1cncc(CNC(=O)c2cc([N+](=O)[O-])c(Sc3c(Cl)cncc3Cl)s2)c1 [Example 239, 5-((3,5-dichloropyridin-4-yl)thio)-N-((5-methoxypyridin-3-yl)methyl)-4-nitrothiophene-2-carboxamide]
≤ 1000 nM	COc1cc(NC(=O)c2cc([N+](=O)[O-])c(Sc3c(Cl)cncc3Cl)s2)ccc1OCCCN(C)C [Example 240, 5-((3,5-dichloropyridin-4-yl)thio)-N-(4-(3-(dimethylamino)propoxy)-3-methoxyphenyl)-4-nitrothiophene-2-carboxamide]
1000 to 10000 nM	O=C(NCC(O)CN1CCCCC1)c1cc([N+](=O)[O-])c(Sc2c(Cl)cncc2Cl)s1 (stereo not drawn) [Example 241, 5-((3,5-dichloropyridin-4-yl)thio)-N-(2-hydroxy-3-(piperidin-1-yl)propyl)-4-nitrothiophene-2-carboxamide]
1000 to 10000 nM	CN1CCC(NC(=O)c2cc([N+](=O)[O-])c(Sc3c(Cl)c[n+]([O-])cc3Cl)s2)CC1 [Example 242, 3,5-dichloro-4-((5-((1-methylpiperidin-4-yl)carbamoyl)-3-nitrothiophen-2-yl)thio)pyridine 1-oxide]
1000 to 10000 nM	Cc1nc(C)c(Cl)c(Sc2sc(C(=O)NC3CCN(C)CC3)cc2[N+](=O)[O-])c1Cl [Example 243, 5-((3,5-dichloro-2,6-dimethylpyridin-4-yl)thio)-N-(1-methylpiperidin-4-yl)-4-nitrothiophene-2-carboxamide]
1000 to 10000 nM	C[S+]([O-])CCCNC(=O)c1cc([N+](=O)[O-])c(Sc2c(Cl)cncc2Cl)s1 (stereo not drawn) [Example 244, 5-((3,5-dichloropyridin-4-yl)thio)-N-(3-(methylsulfinyl)propyl)-4-nitrothiophene-2-carboxamide]
1000 to 10000 nM	CS(=O)(=O)CCCNC(=O)c1cc([N+](=O)[O-])c(Sc2c(Cl)cncc2Cl)s1 [Example 245, 5-((3,5-dichloropyridin-4-yl)thio)-N-(3-(methylsulfonyl)propyl)-4-nitrothiophene-2-carboxamide]
1000 to 10000 nM	CN1CCC(NS(=O)(=O)c2cc([N+](=O)[O-])c(Sc3c(Cl)cncc3Cl)s2)CC1 [Example 246, 5-((3,5-dichloropyridin-4-yl)thio)-N-(1-methylpiperidin-4-yl)-4-nitrothiophene-2-sulfonamide]
1000 to 10000 nM	CN1CCC(NC(=O)c2sc(Sc3c(Cl)cncc3Cl)c(C#N)c2-c2ccccc2)CC1 [Example 247, 4-cyano-5-((3,5-dichloropyridin-4-yl)thio)-N-(1-methylpiperidin-4-yl)-3-phenylthiophene-2-carboxamide]
1000 to 10000 nM	O=C1COc2ccc(Sc3sc(C(=O)Nc4cc(C5CC5)n[nH]4)cc3[N+](=O)[O-])cc2N1 [Example 248, N-(3-cyclopropyl-1H-pyrazol-5-yl)-4-nitro-5-((3-oxo-3,4-dihydro-2H-benzo[b][1,4]oxazin-6-yl)thio)thiophene-2-carboxamide]
1000 to 10000 nM	O=C(NCCCN1CCCCC1)c1cc([N+](=O)[O-])c(Sc2ccc(Cl)cc2Cl)s1 [Example 249, 5-((2,4-dichlorophenyl)thio)-4-nitro-N-(3-(piperidin-1-yl)propyl)thiophene-2-carboxamide]
1000 to 10000 nM	O=C(NCc1ccccc1)c1cc([N+](=O)[O-])c(Sc2nc3ccccc3s2)s1 [Example 252, 5-(benzo[d]thiazol-2-ylthio)-N-benzyl-4-nitrothiophene-2-carboxamide]
1000 to 10000 nM	CC(C)N1CCC(NC(=O)c2cc([N+](=O)[O-])c(Sc3nc4ccccc4s3)s2)CC1 [Example 253, 5-(benzo[d]thiazol-2-ylthio)-N-(1-isopropylpiperidin-4-yl)-4-nitrothiophene-2-carboxamide]
1000 to 10000 nM	CN(C)CCC(NC(=O)c1cc([N+](=O)[O-])c(Sc2nc3ccccc3s2)s1)c1ccccc1 (stereo not drawn) [Example 254, 5-(benzo[d]thiazol-2-ylthio)-N-(3-(dimethylamino)-1-phenylpropyl)-4-nitrothiophene-2-carboxamide]
1000 to 10000 nM	COC(=O)c1cc([N+](=O)[O-])c(Sc2c(F)cncc2F)s1 [Example 255, Methyl 5-((3,5-difluoropyridin-4-yl)thio)-4-nitrothiophene-2-carboxylate]

— patent US8680139B2 (Progenra, priority 2009, dated 2014)
